In ChEMBL document CHEMBL1201862, “PubChem BioAssay data set” (2004):
Calls of active or inactive are those of the source.

Legend:
[1] = target: T1, RNA-binding protein pos-1 (Caenorhabditis elegans, UniProt G5EF15); test: disruptors of C. elegans POS-1 RNA interaction – biochemical, fluorescence polarization, dose response (AID 1964);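 note: purified POS-1 fused to maltose binding protein made in E. coli; potency of compounds blocking POS-1 binding to fluorescent RNA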
T1 sequence (G5EF15 whole entry): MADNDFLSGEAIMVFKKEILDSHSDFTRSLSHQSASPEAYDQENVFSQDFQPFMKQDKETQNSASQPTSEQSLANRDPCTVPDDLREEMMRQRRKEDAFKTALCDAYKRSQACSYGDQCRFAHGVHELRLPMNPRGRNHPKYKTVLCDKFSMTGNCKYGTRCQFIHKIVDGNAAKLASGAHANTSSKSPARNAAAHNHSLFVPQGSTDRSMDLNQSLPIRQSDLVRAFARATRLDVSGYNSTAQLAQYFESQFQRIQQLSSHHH

[2] = target: Ubiquitin carboxyl-terminal hydrolase BAP1 (Homo sapiens, UniProt Q92560); test: inhibition of BAP1 ubiquitin hydrolase activity – biochemical, dose response (AID 714); type: functional
Sequence of Ubiquitin carboxyl-terminal hydrolase BAP1 (Q92560 whole entry): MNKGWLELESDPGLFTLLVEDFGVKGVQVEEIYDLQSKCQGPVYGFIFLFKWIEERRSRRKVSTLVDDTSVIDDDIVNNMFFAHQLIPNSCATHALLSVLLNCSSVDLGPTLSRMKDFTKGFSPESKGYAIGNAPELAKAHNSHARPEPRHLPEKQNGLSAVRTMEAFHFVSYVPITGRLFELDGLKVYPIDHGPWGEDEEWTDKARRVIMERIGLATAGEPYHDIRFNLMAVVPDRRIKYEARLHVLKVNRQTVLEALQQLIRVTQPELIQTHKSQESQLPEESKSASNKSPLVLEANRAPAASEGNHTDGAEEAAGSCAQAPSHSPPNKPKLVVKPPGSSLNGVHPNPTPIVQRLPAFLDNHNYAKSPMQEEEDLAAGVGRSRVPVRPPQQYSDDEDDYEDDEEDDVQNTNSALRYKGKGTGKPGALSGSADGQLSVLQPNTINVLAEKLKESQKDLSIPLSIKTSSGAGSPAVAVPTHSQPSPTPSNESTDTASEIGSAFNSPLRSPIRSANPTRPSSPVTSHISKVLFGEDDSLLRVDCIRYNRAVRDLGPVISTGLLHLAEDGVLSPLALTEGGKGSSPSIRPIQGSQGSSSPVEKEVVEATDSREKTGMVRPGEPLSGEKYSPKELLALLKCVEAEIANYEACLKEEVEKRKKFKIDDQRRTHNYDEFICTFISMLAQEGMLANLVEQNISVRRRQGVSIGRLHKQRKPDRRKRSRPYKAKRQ

[3] = target: T2, Zinc finger protein mex-5 (Caenorhabditis elegans, UniProt Q9XUB2); test: potency of MEX-5 RNA-binding blockers – biochemical, C. elegans, fluorescence polarization, dose response (AID 1960)
T2 sequence (Q9XUB2 whole entry): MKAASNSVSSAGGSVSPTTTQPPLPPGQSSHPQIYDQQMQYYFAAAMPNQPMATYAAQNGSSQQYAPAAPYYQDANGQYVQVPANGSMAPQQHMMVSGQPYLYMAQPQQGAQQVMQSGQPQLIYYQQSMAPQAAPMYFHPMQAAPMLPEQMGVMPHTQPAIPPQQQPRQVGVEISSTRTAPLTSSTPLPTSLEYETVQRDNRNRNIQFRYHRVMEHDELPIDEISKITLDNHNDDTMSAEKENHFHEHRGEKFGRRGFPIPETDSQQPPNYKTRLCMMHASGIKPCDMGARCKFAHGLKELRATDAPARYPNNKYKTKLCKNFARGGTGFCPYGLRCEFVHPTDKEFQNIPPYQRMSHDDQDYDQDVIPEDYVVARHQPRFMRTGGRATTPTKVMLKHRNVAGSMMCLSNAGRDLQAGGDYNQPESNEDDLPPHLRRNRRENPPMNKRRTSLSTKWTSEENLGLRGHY

[4] = target: E3 ubiquitin-protein ligase Mdm2 (Homo sapiens, UniProt Q00987); test: MDM2-luc reporter signal enhancers, multi-concentration potency testing, MDM2 ubiquitin-protein ligase inhibitor program, whole-cell format, luminescence detection, 384-well microplate (AID 1394); type: functional;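 note: MDM2 E3 inhibitors raise luminescence so EC50 is for signal enhancement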
Sequence of E3 ubiquitin-protein ligase Mdm2 (Q00987 whole entry): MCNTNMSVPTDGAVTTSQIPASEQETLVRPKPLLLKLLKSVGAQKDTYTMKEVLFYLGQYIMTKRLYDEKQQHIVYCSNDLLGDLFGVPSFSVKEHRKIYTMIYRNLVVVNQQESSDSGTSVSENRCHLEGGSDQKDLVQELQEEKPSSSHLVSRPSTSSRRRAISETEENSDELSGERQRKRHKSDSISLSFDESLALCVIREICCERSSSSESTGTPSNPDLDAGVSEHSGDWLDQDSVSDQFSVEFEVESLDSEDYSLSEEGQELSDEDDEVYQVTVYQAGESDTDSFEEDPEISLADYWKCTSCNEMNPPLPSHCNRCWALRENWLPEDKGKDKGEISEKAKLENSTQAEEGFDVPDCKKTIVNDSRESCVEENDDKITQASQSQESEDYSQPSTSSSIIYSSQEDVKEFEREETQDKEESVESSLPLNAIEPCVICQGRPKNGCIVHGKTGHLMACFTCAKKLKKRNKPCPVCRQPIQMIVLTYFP

BJ [5] = test: BJ-TERT fibroblast viability loss – cell-based, RAS-independent, luminescence, dose response (AID 1933); type: functional; conditions: Homo sapiens
BJ [6] = test: cells; type: functional, cell-based; conditions: Homo sapiens
[7] = DRD fibroblast viability loss – cell-based, non-viral oncogenic, luminescence, dose response (AID 1934); type: functional; conditions: Homo sapiens
[8] = target: T3, Replicative DNA helicase DnaB (Mycobacterium tuberculosis, UniProt P9WMR3); test: DnaB intein splicing inhibitors, dose response, biochemical, cell-free fluorescence (AID 449749); type: functional
T3 sequence (P9WMR3 whole entry): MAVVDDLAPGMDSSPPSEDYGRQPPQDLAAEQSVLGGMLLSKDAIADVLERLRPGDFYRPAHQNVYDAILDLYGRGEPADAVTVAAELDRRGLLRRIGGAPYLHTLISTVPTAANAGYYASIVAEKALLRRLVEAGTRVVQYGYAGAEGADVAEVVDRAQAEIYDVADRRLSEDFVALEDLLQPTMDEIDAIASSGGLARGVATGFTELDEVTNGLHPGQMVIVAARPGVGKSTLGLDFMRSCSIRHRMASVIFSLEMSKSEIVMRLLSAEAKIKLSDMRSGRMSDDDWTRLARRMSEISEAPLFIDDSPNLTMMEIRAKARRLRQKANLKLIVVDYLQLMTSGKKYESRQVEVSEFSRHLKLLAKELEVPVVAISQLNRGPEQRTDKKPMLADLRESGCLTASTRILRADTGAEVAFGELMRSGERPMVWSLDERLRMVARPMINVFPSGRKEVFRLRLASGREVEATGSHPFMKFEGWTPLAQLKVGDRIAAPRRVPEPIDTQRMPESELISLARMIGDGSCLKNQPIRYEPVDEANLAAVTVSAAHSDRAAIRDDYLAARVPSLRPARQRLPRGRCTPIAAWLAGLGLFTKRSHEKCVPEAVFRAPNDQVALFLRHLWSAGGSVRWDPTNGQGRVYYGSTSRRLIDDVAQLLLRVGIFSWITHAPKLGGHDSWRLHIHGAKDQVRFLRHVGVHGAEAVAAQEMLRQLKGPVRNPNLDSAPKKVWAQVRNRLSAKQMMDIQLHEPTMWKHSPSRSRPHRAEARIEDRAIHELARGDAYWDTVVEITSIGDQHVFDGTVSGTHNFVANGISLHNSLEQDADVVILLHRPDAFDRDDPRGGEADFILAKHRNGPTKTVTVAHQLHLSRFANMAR

Protein RecA = target: T4, Protein RecA (Mycobacterium tuberculosis, UniProt P9WHJ3); test: Fluorescence Cell-Free Homogeneous Dose Retest to Identify Inhibitors of RecA-Intein Splicing Activity. [Related pubchem assays (depositor defined):AID2097, AID2223, AID489010, AID492950]; type: functional
T4 sequence (P9WHJ3 whole entry): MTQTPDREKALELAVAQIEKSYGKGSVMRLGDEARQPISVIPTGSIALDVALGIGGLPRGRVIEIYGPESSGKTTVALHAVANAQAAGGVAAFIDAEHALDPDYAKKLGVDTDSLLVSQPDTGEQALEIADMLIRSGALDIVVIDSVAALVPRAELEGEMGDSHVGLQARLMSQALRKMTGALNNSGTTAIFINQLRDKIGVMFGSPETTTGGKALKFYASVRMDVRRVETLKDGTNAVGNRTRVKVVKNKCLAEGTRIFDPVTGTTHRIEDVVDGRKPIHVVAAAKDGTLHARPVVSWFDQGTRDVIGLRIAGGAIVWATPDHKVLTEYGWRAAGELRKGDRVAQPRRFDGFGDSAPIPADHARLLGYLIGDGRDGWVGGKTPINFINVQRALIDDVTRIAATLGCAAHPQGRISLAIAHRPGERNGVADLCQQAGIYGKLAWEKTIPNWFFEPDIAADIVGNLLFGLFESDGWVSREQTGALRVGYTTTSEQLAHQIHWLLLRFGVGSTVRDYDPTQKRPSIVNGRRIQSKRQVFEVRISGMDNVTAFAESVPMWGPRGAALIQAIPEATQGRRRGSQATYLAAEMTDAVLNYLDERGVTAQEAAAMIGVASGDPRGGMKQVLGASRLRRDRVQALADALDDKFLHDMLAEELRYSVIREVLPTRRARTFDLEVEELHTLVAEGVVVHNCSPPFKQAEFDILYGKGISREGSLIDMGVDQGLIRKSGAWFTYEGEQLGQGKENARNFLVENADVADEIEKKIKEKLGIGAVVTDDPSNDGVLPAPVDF

[9] = target: Luciferin 4-monooxygenase (Photinus pyralis, UniProt P08659); test: inhibition of purified Photinus pyralis luciferase – biochemical, luminescence, dose response (AID 1891)
Sequence of Luciferin 4-monooxygenase (P08659 whole entry): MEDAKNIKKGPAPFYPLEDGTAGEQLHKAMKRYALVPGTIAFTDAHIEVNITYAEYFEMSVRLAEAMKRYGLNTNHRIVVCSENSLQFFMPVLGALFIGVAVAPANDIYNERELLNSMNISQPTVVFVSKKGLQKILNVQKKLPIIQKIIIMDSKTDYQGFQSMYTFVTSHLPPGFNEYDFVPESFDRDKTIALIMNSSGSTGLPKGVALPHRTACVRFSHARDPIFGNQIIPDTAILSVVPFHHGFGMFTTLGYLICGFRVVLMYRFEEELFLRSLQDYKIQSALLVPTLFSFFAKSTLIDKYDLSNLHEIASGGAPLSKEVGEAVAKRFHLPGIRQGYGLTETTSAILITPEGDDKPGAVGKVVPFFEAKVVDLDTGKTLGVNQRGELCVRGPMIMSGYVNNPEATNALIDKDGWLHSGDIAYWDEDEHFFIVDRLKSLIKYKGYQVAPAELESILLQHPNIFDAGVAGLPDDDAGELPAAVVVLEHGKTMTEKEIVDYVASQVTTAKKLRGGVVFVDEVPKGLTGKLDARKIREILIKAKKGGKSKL

Estrogen receptor = target: T5, Estrogen receptor (Homo sapiens, UniProt P03372);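 note: potency for inhibiting coactivator peptide recruitment to the receptor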
T5 sequence (P03372 whole entry): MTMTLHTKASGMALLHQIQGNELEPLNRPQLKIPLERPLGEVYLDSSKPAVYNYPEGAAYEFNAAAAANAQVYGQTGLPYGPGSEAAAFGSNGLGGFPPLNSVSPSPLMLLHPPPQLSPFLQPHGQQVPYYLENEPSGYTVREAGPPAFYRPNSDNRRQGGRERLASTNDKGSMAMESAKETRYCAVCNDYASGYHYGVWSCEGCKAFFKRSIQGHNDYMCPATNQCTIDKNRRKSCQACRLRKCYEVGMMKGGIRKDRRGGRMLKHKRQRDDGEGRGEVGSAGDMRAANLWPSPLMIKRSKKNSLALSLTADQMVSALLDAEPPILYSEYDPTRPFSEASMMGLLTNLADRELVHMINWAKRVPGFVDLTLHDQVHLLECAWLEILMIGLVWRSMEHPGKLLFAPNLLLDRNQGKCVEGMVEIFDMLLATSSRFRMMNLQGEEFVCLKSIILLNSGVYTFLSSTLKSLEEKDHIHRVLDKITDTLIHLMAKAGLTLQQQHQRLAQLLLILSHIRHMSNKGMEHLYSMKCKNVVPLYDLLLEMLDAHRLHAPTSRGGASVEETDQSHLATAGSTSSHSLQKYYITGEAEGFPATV

[10] = Luminescence Cell-Based Dose Confirmation HTS to Identify Inhibitors of Platelet Dense Granule Release. [Related pubchem assays: 1663 (Primary HTS), 1678 (Summary of Project)]; type: functional
Estrogen receptor beta [11] = target: T6, Estrogen receptor beta (Homo sapiens, UniProt Q92731);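 note: recombinant ER-beta bound to coactivator SRC1 peptide in presence of estradiol agonist; inhibitors block coactivator peptide binding and lower the FRET signal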
T6 sequence (Q92731 whole entry): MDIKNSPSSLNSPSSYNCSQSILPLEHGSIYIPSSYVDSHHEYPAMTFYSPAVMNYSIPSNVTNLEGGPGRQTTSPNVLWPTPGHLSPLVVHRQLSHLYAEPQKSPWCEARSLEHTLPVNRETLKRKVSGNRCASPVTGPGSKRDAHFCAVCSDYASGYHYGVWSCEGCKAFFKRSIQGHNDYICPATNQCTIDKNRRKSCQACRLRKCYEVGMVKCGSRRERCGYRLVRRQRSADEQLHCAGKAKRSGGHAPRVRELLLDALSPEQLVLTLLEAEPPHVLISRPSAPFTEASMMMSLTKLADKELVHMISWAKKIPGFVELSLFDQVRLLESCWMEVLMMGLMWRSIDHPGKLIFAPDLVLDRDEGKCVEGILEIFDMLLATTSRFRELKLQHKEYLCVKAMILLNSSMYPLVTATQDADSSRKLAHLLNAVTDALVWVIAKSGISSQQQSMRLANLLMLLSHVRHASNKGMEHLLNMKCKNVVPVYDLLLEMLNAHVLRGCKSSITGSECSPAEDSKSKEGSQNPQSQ

Estrogen receptor beta [12] = target: T6, Estrogen receptor beta; test: blockers of SRC-3 recruitment to ERβ – biochemical, ELISA, streptavidin-HRP readout, orthogonal assay, confirmation (AID 1060)
[13] = target: T7, Carboxy-terminal domain RNA polymerase II polypeptide A small phosphatase 1 (Homo sapiens, UniProt Q9GZU7); test: CTDSP1 inhibitors, concentration-response, biochemical, absorbance readout, ultra-high-throughput screen actives (AID 540297); type: functional
T7 sequence (Q9GZU7 whole entry): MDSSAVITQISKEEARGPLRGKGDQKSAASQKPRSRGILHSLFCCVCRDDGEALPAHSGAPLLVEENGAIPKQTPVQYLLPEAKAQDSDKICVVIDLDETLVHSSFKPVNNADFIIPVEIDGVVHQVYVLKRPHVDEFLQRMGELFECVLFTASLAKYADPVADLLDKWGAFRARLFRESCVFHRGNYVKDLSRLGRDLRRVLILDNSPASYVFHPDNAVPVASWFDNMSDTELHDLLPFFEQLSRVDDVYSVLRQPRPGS

[14] = target: T8, Tyrosine-protein phosphatase non-receptor type 7 (Homo sapiens, UniProt P35236); test: HePTP tyrosine phosphatase activity blockers – biochemical, absorbance, leukemia target, primary screen (AID 521); type: functional
T8 sequence (P35236 whole entry): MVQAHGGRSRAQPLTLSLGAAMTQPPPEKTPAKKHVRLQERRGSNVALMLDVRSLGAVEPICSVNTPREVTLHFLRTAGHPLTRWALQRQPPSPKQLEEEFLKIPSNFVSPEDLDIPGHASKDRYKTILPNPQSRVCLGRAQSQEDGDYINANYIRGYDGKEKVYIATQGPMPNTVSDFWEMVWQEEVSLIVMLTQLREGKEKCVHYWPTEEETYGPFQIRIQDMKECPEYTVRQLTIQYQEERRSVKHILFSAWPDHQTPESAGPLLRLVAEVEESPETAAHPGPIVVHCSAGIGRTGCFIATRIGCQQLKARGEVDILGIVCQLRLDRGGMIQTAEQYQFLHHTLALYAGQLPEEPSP

[15] = target: T9, Calpain-2 catalytic subunit (Sus scrofa, UniProt P43367); test: m-calpain protease blockers, concentration series – biochemical, fluorogenic peptide substrate, dose response (AID 1420); type: functional
T9 sequence (P43367 whole entry): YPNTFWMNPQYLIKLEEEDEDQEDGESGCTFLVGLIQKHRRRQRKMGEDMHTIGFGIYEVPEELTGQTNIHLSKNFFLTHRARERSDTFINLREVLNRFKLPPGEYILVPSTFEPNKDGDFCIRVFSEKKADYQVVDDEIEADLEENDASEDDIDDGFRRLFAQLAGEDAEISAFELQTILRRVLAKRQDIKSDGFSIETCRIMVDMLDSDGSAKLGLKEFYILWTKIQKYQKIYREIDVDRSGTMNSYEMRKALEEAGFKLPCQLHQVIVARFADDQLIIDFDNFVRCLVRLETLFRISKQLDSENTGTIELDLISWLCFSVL

[16] = target: 5-hydroxytryptamine receptor 1A (Homo sapiens, UniProt P08908); type: functional
Sequence of 5-hydroxytryptamine receptor 1A (P08908 whole entry): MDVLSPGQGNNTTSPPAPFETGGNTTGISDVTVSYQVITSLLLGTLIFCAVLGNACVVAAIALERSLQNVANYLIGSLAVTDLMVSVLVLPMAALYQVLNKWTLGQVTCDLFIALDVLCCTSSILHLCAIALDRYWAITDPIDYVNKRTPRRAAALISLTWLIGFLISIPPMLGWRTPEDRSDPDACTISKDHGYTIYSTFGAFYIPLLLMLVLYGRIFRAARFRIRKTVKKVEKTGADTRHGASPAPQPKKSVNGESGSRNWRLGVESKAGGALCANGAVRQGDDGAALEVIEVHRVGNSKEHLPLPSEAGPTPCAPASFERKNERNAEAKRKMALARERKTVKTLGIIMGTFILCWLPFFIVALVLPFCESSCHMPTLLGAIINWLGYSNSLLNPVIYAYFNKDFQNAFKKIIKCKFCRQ

Protein skinhead-1 = target: T10, Protein skinhead-1 (Caenorhabditis elegans, UniProt P34707); type: functional
T10 sequence (P34707 whole entry): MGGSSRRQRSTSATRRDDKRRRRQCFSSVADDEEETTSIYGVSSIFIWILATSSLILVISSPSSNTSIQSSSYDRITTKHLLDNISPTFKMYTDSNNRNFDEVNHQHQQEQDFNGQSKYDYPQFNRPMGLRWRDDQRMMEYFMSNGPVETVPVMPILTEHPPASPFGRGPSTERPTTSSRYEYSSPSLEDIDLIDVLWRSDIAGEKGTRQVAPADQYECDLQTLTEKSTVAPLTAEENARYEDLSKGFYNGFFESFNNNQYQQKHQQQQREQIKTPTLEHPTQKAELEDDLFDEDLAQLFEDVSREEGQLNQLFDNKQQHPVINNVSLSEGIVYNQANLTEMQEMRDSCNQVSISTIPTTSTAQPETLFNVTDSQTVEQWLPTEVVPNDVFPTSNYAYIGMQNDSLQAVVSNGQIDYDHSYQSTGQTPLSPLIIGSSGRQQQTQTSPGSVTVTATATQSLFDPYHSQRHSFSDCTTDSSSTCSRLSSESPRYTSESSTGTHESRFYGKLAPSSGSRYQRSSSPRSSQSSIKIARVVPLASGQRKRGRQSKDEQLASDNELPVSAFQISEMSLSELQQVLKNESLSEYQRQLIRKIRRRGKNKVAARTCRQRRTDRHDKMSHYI

In the case of `O=C(c1ccco1)[C@@H]1[C@@H]2C(=O)N(c3ccccc3)C(=O)[C@@H]2C2c3ccccc3C=CN21` (some centres undefined), the EC50 [1] is reported as 39.1 µM (active), the IC50 [2] is reported as 23.4 µM (active) and the EC50 [3] is reported as 34.9 µM (active).

For `Cc1ccc(C=C2C(Cl)=C(Cl)C(Cl)=C2Cl)cc1`, the EC50 [4] was 0.78 µM (active), the EC50 (BJ [5]) was 5.3 µM (inconclusive) and the EC50 (BJ [6]) was 6.03 µM (inconclusive). For the same molecule, the EC50 [7] was 5.03 µM (inconclusive), the AC50 [8] was > 380 µM (inactive) and the EC50 (Protein RecA) was 5.66 µM (active).

In the case of `Cc1ccc(-c2cc(C(=O)NCc3ccco3)c3ccccc3n2)o1`, the EC50 [9] is reported as 36.8 µM (active), the IC50 (Estrogen receptor) is reported as 6.84 µM (active) and the EC50 [10] is reported as > 112 µM (not active). For the same molecule, the IC50 (Estrogen receptor beta [11]) was 3.37 µM (active), the IC50 (Estrogen receptor beta [12]) was > 50 µM (not active) and the IC50 [13] was 4.39 µM (active).

In the case of `Cc1cc(NC(=O)c2ccc3c(c2)C(=O)N(Cc2cccnc2)C3=O)no1`, the IC50 [14] is reported as > 100 µM (not active) and the IC50 [15] is reported as 13.7 µM (not active).

In the case of `O=C(O)C1CCCCC1C(=O)NCCc1c[nH]c2ccccc12` (centres undefined), the EC50 [16] is reported as 34.8 µM (not active) and the IC50 (Protein skinhead-1) is reported as > 100 µM (inactive).
